Patent US8394807B2, “Quinazoline inhibitors of BACE 1 and methods of using” (Purdue Research Foundation, priority 2008, dated 2013)

Columns and labels:
memapsin 2 [1] = target: memapsin 2 (Homo sapiens, UniProt P56817); experiment: Inhibition of memapsin 2 catalytic activity toward fluorogenic substrate FS-2; type: biochemical; settings: pH 4, 37° C., 20 minutes pre-incubation, tight-binding model; symbol outside parentheses; read-out: Activity against memapsin 2: Ki
Description: Inhibition Of Memapsin 2. […] Potency of compounds were determined by measurement of their inhibition of memapsin 2 catalytic activity toward a fluorescent substrate. […] Briefly, assays were performed at pH 4, 37° C., by pre-incubation of memapsin 2 enzyme with compound for 20 minutes. Activity measure was initiated by addition of a fluorogenic substrate FS-2 (Bachem Americas, Torrance, Calif.). Fluorescent signal increase over time was measured as a rate of hydrolysis of the peptide substrate. […]

memapsin 2 [2] = target: T1, memapsin 2 (Cricetulus griseus, UniProt G3IAK4); experiment: Cellular Aβ IC50 determination (Aβ40 sandwich ELISA); type: cell-based; settings: symbol in parentheses; Chinese hamster ovary cells over-expressing human APP695 (London and Swedish mutations), Aβ40, 24 h; read-out: Activity against memapsin 2: (IC50)
T1 construct: endogenous in cells; host or cells: Chinese hamster ovary cells over-expressing human APP695 (London and Swedish mutations)
T1 sequence (G3IAK4 22-501): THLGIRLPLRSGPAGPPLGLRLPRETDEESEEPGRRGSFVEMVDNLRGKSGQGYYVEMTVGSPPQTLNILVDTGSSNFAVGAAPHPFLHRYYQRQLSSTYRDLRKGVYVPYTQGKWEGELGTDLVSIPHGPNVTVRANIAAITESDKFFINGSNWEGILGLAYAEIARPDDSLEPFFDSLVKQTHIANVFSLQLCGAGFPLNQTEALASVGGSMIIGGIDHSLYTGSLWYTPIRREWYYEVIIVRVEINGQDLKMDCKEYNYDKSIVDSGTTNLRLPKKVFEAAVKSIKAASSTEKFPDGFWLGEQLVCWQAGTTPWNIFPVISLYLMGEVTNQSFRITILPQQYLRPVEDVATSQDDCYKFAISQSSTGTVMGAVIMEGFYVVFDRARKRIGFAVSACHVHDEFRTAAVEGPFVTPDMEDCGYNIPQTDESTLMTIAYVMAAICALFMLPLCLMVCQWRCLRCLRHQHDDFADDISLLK
Description: Cellular Aβ C50 Determinations. The potency of compounds against memapsin 2 catalytic activity is determined in a cellular assay of Aβ production. […] Chinese hamster ovary cells that over-express human APP695 with the London and Swedish mutations are seeded in multi-well plates at 10% confluency. Compounds are dissolved in DMSO to concentrations near 1 mM, and diluted into culture media to a final concentration near 4 μM (final 0.4% DMSO). Compounds are diluted serially and applied to cells in multi-well plates 48 h after seeding. Incubation is continued in 5% CO2 at 37 degrees C. for 24 h. Aliquots are removed and assayed for Aβ40 content using a sandwich ELISA (BioSource International). Amount of Aβ40 over the range of concentration of compounds, relative to control incubations, are fit to a 4-parameter IC50 model.

memapsin 2 (Homo sapiens, UniProt P56817), sequence (P56817 46-501): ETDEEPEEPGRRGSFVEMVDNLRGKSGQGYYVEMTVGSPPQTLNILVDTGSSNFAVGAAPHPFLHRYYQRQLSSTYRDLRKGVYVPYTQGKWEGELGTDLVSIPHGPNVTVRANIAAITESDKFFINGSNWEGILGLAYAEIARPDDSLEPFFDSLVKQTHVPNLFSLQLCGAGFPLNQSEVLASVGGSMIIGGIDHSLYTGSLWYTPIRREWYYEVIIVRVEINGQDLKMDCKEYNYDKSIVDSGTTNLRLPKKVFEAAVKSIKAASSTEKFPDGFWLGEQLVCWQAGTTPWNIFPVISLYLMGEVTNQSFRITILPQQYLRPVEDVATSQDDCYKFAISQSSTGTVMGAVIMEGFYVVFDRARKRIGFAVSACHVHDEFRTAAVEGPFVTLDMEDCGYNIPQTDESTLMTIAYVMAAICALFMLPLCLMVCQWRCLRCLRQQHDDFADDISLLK

| Ki (memapsin 2 [1]) | IC50 (memapsin 2 [2]) | SMILES |
| --- | --- | --- |
| < 500 nM | – | Cc1csc(CN(C(=O)OC[C@@H](C2CCCCC2)N2Cc3cc(Oc4ccccc4)ccc3N=C2N)C2CCCCC2)n1 [Inhibitor 119] |
| < 50 nM | < 50 nM | CN(CCC[C@@H](C1CCCCC1)N1Cc2cc(Oc3ccccc3)ccc2N=C1N)C1CCCCC1 [Inhibitor 0188] |
| < 500 nM | < 5000 nM | CN(C(=O)OC[C@@H](C1CCCOC1)N1Cc2cc(Oc3ccccc3)ccc2N=C1N)C1CCCCC1 (some centres unmarked) [Inhibitor 0318] |
| < 5000 nM | < 5000 nM | CN(C(=O)OC[C@@H](c1ccccc1)N1Cc2cc(Oc3ccccc3)ccc2N=C1N)C1CCCCC1 [Inhibitor 0328] |
| < 500 nM | – | CN(CCC[C@@H](C1CCCOC1)N1Cc2cc(Oc3ccccc3)ccc2N=C1N)C1CCCCC1 (some centres unmarked) [Inhibitor 0408] |
| < 500 nM | – | Cc1csc(CN(CCC[C@@H](C2CCCCC2)N2Cc3cc(Oc4ccccc4)ccc3N=C2N)C2CCCCC2)n1 [Inhibitor 409] |
| < 5000 nM | < 5000 nM | CN(CCC[C@@H](c1ccccc1)N1Cc2cc(Oc3ccccc3)ccc2N=C1N)C1CCCCC1 [Inhibitor 0418] |
| < 500 nM | – | NC1=Nc2ccc(Oc3ccccc3)cc2CN1[C@@H](CCNCC1CCCCC1)C1CCCCC1 [Inhibitor 0428] |
| < 500 nM | – | CC(NCC[C@@H](C1CCCCC1)N1Cc2cc(Oc3ccccc3)ccc2N=C1N)c1ccccc1 (some centres unmarked) [Inhibitor 0438] |
| < 500 nM | < 5000 nM | NC1=Nc2ccc(Oc3ccccc3)cc2CN1[C@@H](CCN(Cc1ccccc1)Cc1ccccc1)C1CCCCC1 [Inhibitor 0448] |
| < 50 nM | > 5000 nM | CN(C(=O)OC[C@@H](C1CCCCC1)N1Cc2cc(Oc3ccccc3)ccc2N=C1N)C1CCCCC1 [Inhibitor 0458] |
| < 500 nM | – | COC[C@@H](NC(=O)OC[C@@H](C1CCCCC1)N1Cc2cc(Oc3ccccc3)ccc2N=C1N)C(=O)OC [Inhibitor 0469] |
| < 500 nM | – | Cc1nc(CN(CCC[C@@H](C2CCCCC2)N2Cc3cc(Oc4ccccc4)ccc3N=C2N)C2CCCCC2)c(C)o1 [Inhibitor 0509] |
| < 5000 nM | – | Cc1nc(CN(C(=O)OC[C@@H](C2CCCCC2)N2Cc3cc(Oc4ccccc4)ccc3N=C2N)C2CCCCC2)co1 [Inhibitor 0519] |
| < 500 nM | – | CN(CCC[C@@H](C1CCCCC1)N1Cc2cc(Oc3ccccc3)ccc2N=C1N)c1ccccc1 [Inhibitor 0538] |
| < 500 nM | < 5000 nM | CN(C(=O)OCC(C1CCOC1)N1Cc2cc(Oc3ccccc3)ccc2N=C1N)C1CCCCC1 (centres unmarked) [Inhibitor 0548] |
| < 500 nM | – | CN(CCCC(C1CCOC1)N1Cc2cc(Oc3ccccc3)ccc2N=C1N)C1CCCCC1 (centres unmarked) [Inhibitor 0568] |
| < 5000 nM | – | Cc1nc(CN(C(=O)OC[C@@H](C2CCCCC2)N2Cc3cc(Oc4ccccc4)ccc3N=C2N)C2CCCCC2)cs1 [Inhibitor 0579] |
| < 500 nM | – | Cc1nc(CN(CCC[C@@H](C2CCCCC2)N2Cc3cc(Oc4ccccc4)ccc3N=C2N)C2CCCCC2)cs1 [Inhibitor 0589] |
| < 5000 nM | – | CN(C)CC[C@@H](C1CCCCC1)N1Cc2cc(Oc3ccccc3)ccc2N=C1N [Inhibitor 0618] |

| Ki (memapsin 2 [1]) | IC50 (memapsin 2 [2]) | SMILES |
| --- | --- | --- |
| < 500 nM | – | CN(CC[C@@H](C1CCCCC1)N1Cc2cc(Oc3ccccc3)ccc2N=C1N)Cc1ccccc1 [Inhibitor 0628] |
| < 500 nM | – | CN(C(=O)OC[C@@H](C1CCCCC1)N1Cc2cc(Oc3ccccc3)ccc2N=C1N)C1CCCCC1O (some centres unmarked) [Inhibitor 0648] |
| < 500 nM | – | NC1=Nc2ccc(Oc3ccccc3)cc2CN1[C@@H](COC(=O)NC1CCCCC1)C1CCCCC1 [Inhibitor 0658] |
| < 500 nM | – | CC(C)c1nc(CN(CCC[C@@H](C2CCCCC2)N2Cc3cc(Oc4ccccc4)ccc3N=C2N)C2CCCCC2)cs1 [Inhibitor 0659] |
| < 500 nM | – | NC1=Nc2ccc(Oc3ccccc3)cc2CN1[C@@H](COC(=O)NC1CCCCC1O)C1CCCCC1 (some centres unmarked) [Inhibitor 0668] |
| < 500 nM | – | Cc1nc(C)c(CN(CCC[C@@H](C2CCCCC2)N2Cc3cc(Oc4ccccc4)ccc3N=C2N)C2CCCCC2)o1 [Inhibitor 0789] |
| < 500 nM | – | Cc1nc(CCN(CCC[C@@H](C2CCCCC2)N2Cc3cc(Oc4ccccc4)ccc3N=C2N)C2CCCCC2)cs1 [Inhibitor 0809] |
| < 500 nM | – | Cc1nc(CN(C(=O)OC[C@@H](C2CCCCC2)N2Cc3cc(Oc4ccccc4)ccc3N=C2N)C2CCCCC2)c(C)o1 [Inhibitor 908] |
| < 500 nM | – | Cc1nc(CCN(CCC[C@@H](C2CCCCC2)N2Cc3cc(Oc4ccccc4)ccc3N=C2N)C2CCCCC2)co1 [Inhibitor 0909] |
| < 500 nM | – | Cc1ncoc1CN(CCC[C@@H](C1CCCCC1)N1Cc2cc(Oc3ccccc3)ccc2N=C1N)C1CCCCC1 [Inhibitor 0929] |
| < 500 nM | – | NC1=Nc2ccc(Oc3ccccc3)cc2CN1[C@@H](CCCN(Cc1cscn1)C1CCCCC1)C1CCCCC1 [Inhibitor 0979] |
| < 500 nM | – | COC[C@H](NC(=O)OC[C@@H](C1CCCCC1)N1Cc2cc(Oc3ccccc3)ccc2N=C1N)C(=O)OC [Inhibitor 0989] |
| < 500 nM | – | Cn1cc(CN(CCC[C@@H](C2CCCCC2)N2Cc3cc(Oc4ccccc4)ccc3N=C2N)C2CCCCC2)cn1 [Inhibitor 1049] |
| < 500 nM | – | COCc1nc(CN(CCC[C@@H](C2CCCCC2)N2Cc3cc(Oc4ccccc4)ccc3N=C2N)C2CCCCC2)cs1 [Inhibitor 1099] |
| < 5000 nM | – | COCC(COC)N(C)C(=O)OC[C@@H](C1CCCCC1)N1Cc2cc(Oc3ccccc3)ccc2N=C1N [Inhibitor 1139] |
| < 5000 nM | – | Cc1nc(CN(CCC[C@@H](C2CCCCC2)N2Cc3cc(Oc4cccnc4)ccc3N=C2N)C2CCCCC2)cs1 [Inhibitor 1209] |
| < 5000 nM | – | Cc1nc(CN(CCC[C@@H](C2CCCCC2)N2Cc3cc(Oc4ccccn4)ccc3N=C2N)C2CCCCC2)cs1 [Inhibitor 1219] |
| < 500 nM | – | NC1=Nc2ccc(Oc3ccccc3)cc2CN1[C@@H](CCCN(Cc1ccoc1)C1CCCCC1)C1CCCCC1 [Inhibitor 1379] |
| < 50 nM | – | NC1=Nc2ccc(Oc3ccccc3)cc2CN1[C@@H](CCCN(Cc1cn[nH]c1)C1CCCCC1)C1CCCCC1 [Inhibitor 1509] |
| < 50 nM | – | Cc1[nH]ncc1CN(CCC[C@@H](C1CCCCC1)N1Cc2cc(Oc3ccccc3)ccc2N=C1N)C1CCCCC1 [Inhibitor 1519] |
